Experimental findings from ChEMBL document CHEMBL1201862, “PubChem BioAssay data set” (2004) are described below.

Holding throughout (assay): inhibition of tumour cell growth, NCI panel, 48 h
Assay [1] has as its system SNB-75.
The subject of assay [2] is HOP-62.
The test system of assay [3] is SK-MEL-28.
In assay [4] the test system is A498.
The subject of assay [5] is U-251.
Assay [6] deals with K562.
Assay [7] concerns SR.
Assay [8] deals with UO-31.
The subject of assay [9] is MOLT-4.
For assay [10], the system named is OVCAR-4.
In assay [11] the test system is IGROV-1.
For assay [12], the system named is RPMI-8226.
Assay [13] deals with SF-295.
Assay [14] deals with ACHN.
In assay [15] the test system is SK-MEL-5.
In assay [16] the test system is RXF 393.
Assay [17] relates to EKVX.
Assay [18] relates to NCI/ADR-RES.
The test system of assay [19] is MDA-MB-435.
For assay [20], the system named is Hs-578T.

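How tested: cells in 96-well plates exposed to compound for 48 hours at five concentrations. The concentration for 50% growth inhibition is given as GI50.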 The source made the active and inactive calls. Cut-off read from the data, not from the text of the source: active = GI50 up to about 1.1 µM and inactive = higher. Peptide text beside a SMILES is read from it. * marks the point of attachment. Boc = CC(C)(C)OC(=O)*; OBn = c1ccc(CO*)cc1

For the molecule `Cc1ccc2c(C)c3ccc4ccccc4c3c[n+]2c1.[O-][Cl+3]([O-])([O-])[O-]`, the GI50 in assay [1] is 11.2 µM (inactive); in assay [2], 13.8 µM (inactive); in [3], 15.3 µM (inactive); in [4] it was 60 µM (inactive); in assay [5], 5.02 µM (inactive); in assay [6] it was 56.5 µM (inactive). In addition, the GI50 is 12 µM (inactive) in assay [7]; 33.6 µM (inactive) in assay [8]; 3.99 µM (inactive) in [9]; 16 µM (inactive) in assay [10]; 31.4 µM (inactive) in assay [11]; 16.6 µM (inactive) in [12]. Further, the GI50 in [13] was 23.1 µM (inactive); in [14] it was 58.7 µM (inactive); in assay [15], 12 µM (inactive); in assay [16], 20.1 µM (inactive); in assay [17], 13.7 µM (inactive).
As for `N#Cc1ccc(/C=N/C23CC4CC(CC(C4)C2)C3)cc1`, the GI50 is > 10 µM (inactive) in assay [1]; > 100 µM (inactive) in assay [2]; > 100 µM (inactive) in assay [3]; > 100 µM (inactive) in [4]; > 100 µM (inactive) in assay [5]; 39.5 µM (inactive) in assay [6]. For the same molecule, the GI50 in assay [7] is > 100 µM (inactive); in [8], > 100 µM (inactive); in assay [9], 78.5 µM (inactive); in assay [10], > 100 µM (inactive); in assay [11], > 100 µM (inactive); in assay [12], > 100 µM (inactive). The GI50 in assay [13] was > 100 µM (inactive); in assay [14], > 100 µM (inactive); in [15], > 10 µM (inactive); in assay [16] it was > 100 µM (inactive); in assay [17], > 100 µM (inactive).
In the case of `CC1=C(c2ccc(C)cc2)NC(=S)C(C)C(c2ccc(C)cc2)=N1` (centres undefined), the GI50 in assay [1] is > 100 µM (inactive); in assay [2] it was 85.7 µM (inactive); in assay [3] it was 47.1 µM (inactive); in [4] it was 26 µM (inactive); in assay [5], > 100 µM (inactive); in assay [6], 35.8 µM (inactive). For the same molecule, the GI50 was > 10 µM (inactive) in assay [7]; 40.5 µM (inactive) in assay [8]; 32.8 µM (inactive) in assay [9]; > 100 µM (inactive) in assay [10]; > 100 µM (inactive) in assay [18]; 72.9 µM (inactive) in [19]. Moreover, the GI50 was > 100 µM (inactive) in assay [11]; 40.6 µM (inactive) in assay [12]; 67.6 µM (inactive) in [13]; 50.2 µM (inactive) in assay [14]; 60 µM (inactive) in assay [15]; 14.7 µM (inactive) in [16]. For the same molecule, in assay [17], the GI50 is 56.6 µM (inactive).
With `CCOC(=O)C1C2CCC1CC(=NNc1ccc([N+](=O)[O-])cc1[N+](=O)[O-])C2` (centres undefined), the GI50 is 18 µM (inactive) in [1]; > 50 µM (inactive) in assay [2]; > 50 µM (inactive) in assay [3]; > 50 µM (inactive) in assay [5]; 29.2 µM (inactive) in assay [6]; 18.6 µM (inactive) in assay [7]. Moreover, the GI50 in assay [8] is > 50 µM (inactive); in [9], 31.4 µM (inactive); in assay [10] it was > 50 µM (inactive); in assay [18], 4.38 µM (inactive); in assay [19], > 50 µM (inactive); in assay [11], > 50 µM (inactive). Besides, the GI50 in assay [12] was 42.4 µM (inactive); in assay [13] it was 8.99 µM (inactive); in assay [14], > 50 µM (inactive); in assay [15], 46.2 µM (inactive); in [16], > 50 µM (inactive); in assay [17] it was 30.3 µM (inactive).
`Cc1c2n(c(=O)[nH]c1=O)C1OC(CO)C(O2)C1O` (centres undefined): the GI50 in [1] was > 100 µM (inactive); in assay [2], > 100 µM (inactive); in assay [3], > 100 µM (inactive); in [4], 23 µM (inactive); in assay [5] it was > 100 µM (inactive); in assay [6], > 100 µM (inactive). The GI50 in assay [7], in [8], in assay [9], in assay [10], in [11] and in [12] was > 100 µM (inactive) throughout. The GI50 in assay [13], in assay [14], in assay [15], in [16] and in [17] was > 100 µM (inactive) throughout.
For the molecule `O=C(c1c(F)c(F)c(F)c(F)c1F)n1c(=S)n(C(=O)c2c(F)c(F)c(F)c(F)c2F)c2ccccc21`, the GI50 in [1] was > 100 µM (inactive); in assay [2] it was > 100 µM (inactive); in assay [3], 59.2 µM (inactive); in [5], > 100 µM (inactive); in assay [6], 22.2 µM (inactive); in assay [7], 39.9 µM (inactive). The GI50 was > 100 µM (inactive) in [8]; 20 µM (inactive) in assay [9]; 95.5 µM (inactive) in assay [10]; > 10 µM (inactive) in assay [19]; > 100 µM (inactive) in assay [20]; > 100 µM (inactive) in assay [11]. Besides, the GI50 in assay [12] is 44.4 µM (inactive); in [13], > 100 µM (inactive); in [14], > 100 µM (inactive); in assay [15] it was > 100 µM (inactive).
As for `CC(=O)C(=[N+]=[N-])C(=O)OCCOC(=O)C(=[N+]=[N-])C(C)=O`, the GI50 in assay [1], in [2], in [3], in assay [4], in assay [5] and in assay [6] was > 1 µM (active) in each case. The GI50 in assay [7], in assay [8], in [9], in assay [19], in assay [20] and in [11] was > 1 µM (active) throughout. The GI50 in assay [12], in assay [13], in assay [14], in assay [15], in assay [16] and in assay [17] was > 1 µM (active) throughout.
For `O=C1c2ccccc2C(=O)c2sc(Nc3ccc([N+](=O)[O-])cc3)nc21`, the GI50 in [1] is 7.89 µM (inactive); in [2], 13 µM (inactive); in assay [3], 10.6 µM (inactive); in [4], 17.2 µM (inactive); in [5], 3.85 µM (inactive); in assay [6], 2.17 µM (inactive). For the same molecule, the GI50 is 2.63 µM (inactive) in assay [7]; 3.87 µM (inactive) in assay [8]; 1.92 µM (inactive) in assay [9]; 4.4 µM (inactive) in assay [10]; 1.32 µM (inactive) in [20]; 12.5 µM (inactive) in [11]. The GI50 is 2.35 µM (inactive) in [12]; 11.8 µM (inactive) in [13]; 2.99 µM (inactive) in [14]; 2.39 µM (inactive) in [15]; 5.16 µM (inactive) in assay [16]; 14.7 µM (inactive) in assay [17].
Take `Nc1ccn(C2(CO)C=C(CO)C(O)C2O)c(=O)n1` (centres undefined): the GI50 in assay [1], in assay [2], in assay [3], in [4], in assay [5] and in assay [6] was > 25.8 µM (inactive) each time. The GI50 in assay [7], in assay [8], in assay [9], in assay [10], in assay [11] and in assay [12] was > 25.8 µM (inactive) each time. In addition, the GI50 in assay [14], in assay [15], in assay [16] and in assay [17] was > 25.8 µM (inactive) throughout.
In the case of `COc1cc(O)c2c(c1)C(=O)C1=C(C2=O)C(O)C[C@@](C)(O)C1` (some centres undefined), the GI50 is 3.41 µM (inactive) in assay [1]; 8.71 µM (inactive) in [2]; 1.5 µM (inactive) in assay [3]; 1.28 µM (inactive) in assay [4]; 2.49 µM (inactive) in assay [5]; 0.457 µM (active) in assay [6]. In addition, the GI50 in assay [7] was 2.4 µM (inactive); in [8], 2.67 µM (inactive); in assay [9], 2.22 µM (inactive); in [10], 1.51 µM (inactive); in assay [11] it was 1.79 µM (inactive); in assay [12], 1.86 µM (inactive). The GI50 in assay [13] was 2.58 µM (inactive); in assay [14] it was 0.684 µM (active); in assay [16], 1.32 µM (inactive); in assay [17], 3.38 µM (inactive).
As to `CC(NC(=O)C(NC(=O)OC(C)(C)C)C(C)C)C(=O)N1CCCC1C(=O)NCC(=O)NC(C(=O)NCC(=O)OCc1ccccc1)C(C)C` (centres undefined) (Boc-VAPGVG-OBn; configuration not given here), the GI50 in assay [1] was 71.3 µM (inactive); in assay [2], > 100 µM (inactive); in assay [3], > 100 µM (inactive); in assay [4], > 100 µM (inactive); in assay [5], > 100 µM (inactive); in [6] it was > 100 µM (inactive). Also, the GI50 in assay [7] is > 100 µM (inactive); in [8] it was > 100 µM (inactive); in [9], > 10 µM (inactive); in assay [10], > 100 µM (inactive); in [18] it was > 100 µM (inactive); in assay [19] it was > 100 µM (inactive). In addition, the GI50 was 62.1 µM (inactive) in assay [11]; > 100 µM (inactive) in assay [12]; > 100 µM (inactive) in [13]; > 100 µM (inactive) in assay [14]; > 100 µM (inactive) in assay [17].
